From US20140357713A1, “ANTIMICROBIAL COMPOUNDS AND METHODS OF USE” (NexMed Holdings, Inc., priority 2012, published 2014)
Read-outs that look alike come from different tables or passages of the source.

Assays:
Experiment in all cases: MIC assay with different strains, Example 35
Assay type in all cases: cell-based
[1] = test system: Acinetobacter baumannii (ATCC 19606)
Procedure: (§1) The minimum inhibitory concentration (MIC) is used to determine the lowest concentration of a test product claiming antimicrobial effects that will inhibit growth of a microorganism. Each microbial suspension was adjusted approximately 10^7 to 10^8 colony forming units (CFU) per mL and labeled as the stock suspension. The stock suspension was further diluted to 1:200 in Mueller Hinton broth to obtain a test sample having a concentration of […]. The test sample was then tested for MIC as described in M202.R02. After incubation, each tube was examined for turbidity, which indicated growth or no growth. For the tubes where the product rendered the media turbid, an aliquot of the media was streaked onto agar plates to confirm growth or lack of growth.

[2] = test system: Burkholderia cepacia (ATCC 25416)
Procedure: as §1

[3] = test system: Enterococcus faecalis (ATCC 51299)
Procedure: as §1

[4] = test system: Streptococcus pneumonia (ATCC 6303)
Procedure: as §1

[5] = test system: Staphylococcus saprophyticus (ATCC 15305)
Procedure: as §1

[6] = test system: Staphylococcus aureus (MRSA) (ATCC 33592)
Procedure: as §1

[7] = test system: Staphylococcus haemolyticus (ATCC 29970)
Procedure: as §1

[8] = test system: Staphylococcus epidermidis (ATCC 12228)
Procedure: as §1

[9] = test system: Escherichia coli (ATCC 11229)
Procedure: as §1

[10] = test system: Streptococcus pyogenes (ATCC 19615)
Procedure: as §1

[11] = test system: Candida albicans (ATCC 10231)
Procedure: as §1

[12] = test system: Enterobacter aerogenes (ATCC 13048)
Procedure: as §1

[13] = test system: Acinetobacter iwoffi (ATCC 15309)
Procedure: as §1

[14] = test system: Pseudomonas aeruginosa (ATCC 9027)
Procedure: as §1

[15] = test system: Micrococcus luteus (ATCC 4698)
Procedure: as §1

[16] = test system: Staphylococcus aureus (ATCC 6538)
Procedure: as §1

In the case of `CCCCCCCCCCCCOC(=O)C(C)NC.Cl` (stereo not drawn) [Nex-59, Dodecyl 2-(methylamino)propanoate hydrochloride], the MIC ([1]; Acinetobacter baumannii, ATCC19606, Table 19 summary, read-out: MIC) was 800 µg/mL, the MIC ([1]; Example 35) was 0.08% and the Growth/no growth ([1]; Sample Concentration 0.01%) was “Growth”. For the same compound, the Growth/no growth ([1]; Sample Concentration 0.02%) was “Growth”, the Growth/no growth ([1]; Sample Concentration 0.04%) was “Growth” and the MIC ([2]; Burkholderia cepacia, ATCC25416, Table 19 summary, read-out: MIC) was 25000 µg/mL. The MIC ([2]; Example 35) was 2.5%, the Growth/no growth ([2]; Sample Concentration 0.01%) was “Growth” and the Growth/no growth ([2]; Sample Concentration 0.02%) was “Growth”. The Growth/no growth ([2]; Sample Concentration 0.04%) was “Growth”, the Growth/no growth ([2]; Sample Concentration 0.08%) was “Growth” and the Growth/no growth ([2]; Sample Concentration 0.16%) was “Growth”. For the same compound, the Growth/no growth ([2]; Sample Concentration 0.32%) was “Growth”, the Growth/no growth ([2]; Sample Concentration 0.63%) was “Growth” and the Growth/no growth ([2]; Sample Concentration 1.25%) was “Growth”. For the same compound, the MIC ([3]; Enterococcus faecalis, ATCC51299, Table 19 summary, read-out: MIC) was 400 µg/mL, the MIC ([3]; Example 35) was 0.04% and the Growth/no growth ([3]; Sample Concentration 0.01%) was “Growth”. For the same compound, the Growth/no growth ([3]; Sample Concentration 0.02%) was “Growth”, the Growth/no growth ([3]; Sample Concentration 0.04%) was “No” and the Growth/no growth ([3]; Sample Concentration 0.08%) was “No”. The Growth/no growth ([3]; Sample Concentration 0.16%) was “No”, the Growth/no growth ([3]; Sample Concentration 0.32%) was “No” and the Growth/no growth ([3]; Sample Concentration 0.63%) was “No”. For the same compound, the Growth/no growth ([3]; Sample Concentration 1.25%) was “No”, the Growth/no growth ([3]; Sample Concentration 2.5%) was “No” and the MIC ([4]; Example 35) was 0.32%. For the same compound, the Growth/no growth ([4]; Sample Concentration 0.01%) was “Growth”, the Growth/no growth ([4]; Sample Concentration 0.02%) was “Growth” and the Growth/no growth ([4]; Sample Concentration 0.04%) was “Growth”. The Growth/no growth ([4]; Sample Concentration 0.08%) was “Growth”, the Growth/no growth ([4]; Sample Concentration 0.16%) was “Growth” and the MIC ([4]; Streptococcus pneumoniae, ATCC6303, Table 19 summary, read-out: MIC) was 3200 µg/mL. For the same compound, the MIC ([5]; Example 35) was 0.02%, the Growth/no growth ([5]; Sample Concentration 0.01%) was “Growth” and the Growth/no growth ([5]; Sample Concentration 0.02%) was “No”. For the same compound, the Growth/no growth ([5]; Sample Concentration 0.04%) was “No”, the Growth/no growth ([5]; Sample Concentration 0.08%) was “No” and the Growth/no growth ([5]; Sample Concentration 0.16%) was “No”. For the same compound, the Growth/no growth ([5]; Sample Concentration 0.32%) was “No”, the Growth/no growth ([5]; Sample Concentration 0.63%) was “No” and the Growth/no growth ([5]; Sample Concentration 1.25%) was “No”. For the same compound, the Growth/no growth ([5]; Sample Concentration 2.5%) was “No”, the MIC ([5]; Staphylococcus saprophyticus, ATCC15305, Table 19 summary, read-out: MIC) was 200 µg/mL and the MIC ([6]; Example 35) was 0.02%. The Growth/no growth ([6]; Sample Concentration 0.01%) was “Growth”, the Growth/no growth ([6]; Sample Concentration 0.02%) was “No” and the Growth/no growth ([6]; Sample Concentration 0.04%) was “No”. For the same compound, the Growth/no growth ([6]; Sample Concentration 0.08%) was “No”, the Growth/no growth ([6]; Sample Concentration 0.16%) was “No” and the Growth/no growth ([6]; Sample Concentration 0.32%) was “No”. The Growth/no growth ([6]; Sample Concentration 0.63%) was “No”, the Growth/no growth ([6]; Sample Concentration 1.25%) was “No” and the Growth/no growth ([6]; Sample Concentration 2.5%) was “No”. For the same compound, the MIC ([6]; Staphylococcus aureus, Table 19 summary, read-out: MIC) was 200 µg/mL, the MIC ([7]; Example 35) was 0.02% and the Growth/no growth ([7]; Sample Concentration 0.01%) was “Growth”. For the same compound, the Growth/no growth ([7]; Sample Concentration 0.02%) was “No”, the Growth/no growth ([7]; Sample Concentration 0.04%) was “No” and the Growth/no growth ([7]; Sample Concentration 0.08%) was “No”. For the same compound, the Growth/no growth ([7]; Sample Concentration 0.16%) was “No”, the Growth/no growth ([7]; Sample Concentration 0.32%) was “No” and the Growth/no growth ([7]; Sample Concentration 0.63%) was “No”. The Growth/no growth ([7]; Sample Concentration 1.25%) was “No”, the Growth/no growth ([7]; Sample Concentration 2.5%) was “No” and the MIC ([7]; Staphylococcus haemolyticus, ATCC29970, Table 19 summary, read-out: MIC) was 200 µg/mL. The MIC ([8]; Example 35) was 0.02%, the Growth/no growth ([8]; Sample Concentration 0.01%) was “Growth” and the Growth/no growth ([8]; Sample Concentration 0.02%) was “No”. For the same compound, the Growth/no growth ([8]; Sample Concentration 0.04%) was “No”, the Growth/no growth ([8]; Sample Concentration 0.08%) was “No” and the Growth/no growth ([8]; Sample Concentration 0.16%) was “No”. The Growth/no growth ([8]; Sample Concentration 0.32%) was “No”, the Growth/no growth ([8]; Sample Concentration 0.63%) was “No” and the Growth/no growth ([8]; Sample Concentration 1.25%) was “No”. The Growth/no growth ([8]; Sample Concentration 2.5%) was “No”, the MIC ([8]; Staphylococcus epidermidis, ATCC12228, Table 19 summary, read-out: MIC) was 200 µg/mL and the MIC ([9]; Escherichia coli, ATCC11229, Table 19 summary, read-out: MIC) was 800 µg/mL. The MIC ([9]; Example 35) was 0.08%, the Growth/no growth ([9]; Sample Concentration 0.01%) was “Growth” and the Growth/no growth ([9]; Sample Concentration 0.02%) was “Growth”. For the same compound, the Growth/no growth ([9]; Sample Concentration 0.04%) was “Growth”, the MIC ([10]; Example 35) was “≦0.01%” and the Growth/no growth ([10]; Sample Concentration 0.01%) was “No”. For the same compound, the Growth/no growth ([10]; Sample Concentration 0.02%) was “No”, the Growth/no growth ([10]; Sample Concentration 0.04%) was “No” and the Growth/no growth ([10]; Sample Concentration 0.08%) was “No”. The Growth/no growth ([10]; Sample Concentration 0.16%) was “No”, the Growth/no growth ([10]; Sample Concentration 0.32%) was “No” and the Growth/no growth ([10]; Sample Concentration 0.63%) was “No”. The Growth/no growth ([10]; Sample Concentration 1.25%) was “No”, the Growth/no growth ([10]; Sample Concentration 2.5%) was “No” and the MIC ([10]; Streptococcus pyogenes, ATCC19615, Table 19 summary, read-out: MIC) was 100 µg/mL. The MIC ([11]; Candida albicans, ATCC10231, Table 19 summary, read-out: MIC) was 400 µg/mL, the MIC ([11]; Example 35) was 0.04% and the Growth/no growth ([11]; Sample Concentration 0.01%) was “Growth”. The Growth/no growth ([11]; Sample Concentration 0.02%) was “Growth”, the MIC ([12]; Example 35) was 0.16% and the MIC ([12]; Klebsiella aerogenes, ATCC13048, Table 19 summary, read-out: MIC) was 1600 µg/mL. The Growth/no growth ([12]; Sample Concentration 0.01%) was “Growth”, the Growth/no growth ([12]; Sample Concentration 0.02%) was “Growth” and the Growth/no growth ([12]; Sample Concentration 0.04%) was “Growth”. For the same compound, the Growth/no growth ([12]; Sample Concentration 0.08%) was “Growth”, the Growth/no growth ([12]; Sample Concentration 0.16%) was “No” and the Growth/no growth ([12]; Sample Concentration 0.32%) was “No”. The Growth/no growth ([12]; Sample Concentration 0.63%) was “No”, the Growth/no growth ([12]; Sample Concentration 1.25%) was “No” and the Growth/no growth ([12]; Sample Concentration 2.5%) was “No”. For the same compound, the MIC ([13]; Acinetobacter, ATCC15309, Table 19 summary, read-out: MIC) was 200 µg/mL, the MIC ([13]; Example 35) was 0.02% and the Growth/no growth ([13]; Sample Concentration 0.01%) was “Growth”. The MIC ([14]; Example 35) was 0.16%, the MIC ([14]; Pseudomonas aeruginosa, ATCC9027, Table 19 summary, read-out: MIC) was 1600 µg/mL and the Growth/no growth ([14]; Sample Concentration 0.01%) was “Growth”. The Growth/no growth ([14]; Sample Concentration 0.02%) was “Growth”, the Growth/no growth ([14]; Sample Concentration 0.04%) was “Growth” and the Growth/no growth ([14]; Sample Concentration 0.08%) was “Growth”. The MIC ([15]; Example 35) was 0.02%, the MIC ([15]; Micrococcus luteus, ATCC4698, Table 19 summary, read-out: MIC) was 200 µg/mL and the Growth/no growth ([15]; Sample Concentration 0.01%) was “Growth”. For the same compound, the Growth/no growth ([15]; Sample Concentration 0.02%) was “No”, the Growth/no growth ([15]; Sample Concentration 0.04%) was “No” and the Growth/no growth ([15]; Sample Concentration 0.08%) was “No”. For the same compound, the Growth/no growth ([15]; Sample Concentration 0.16%) was “No”, the Growth/no growth ([15]; Sample Concentration 0.32%) was “No” and the Growth/no growth ([15]; Sample Concentration 0.63%) was “No”. The Growth/no growth ([15]; Sample Concentration 1.25%) was “No”, the Growth/no growth ([15]; Sample Concentration 2.5%) was “No” and the MIC ([16]; Example 35) was 0.04%. For the same compound, the Growth/no growth ([16]; Sample Concentration 0.01%) was “Growth”, the Growth/no growth ([16]; Sample Concentration 0.02%) was “Growth” and the MIC ([16]; Staphylococcus aureus, ATCC6538, Table 19 summary, read-out: MIC) was 400 µg/mL.
